Patent US8691949B2, “Peptide having anti-diabetic activity and use thereof” (MG Pharma Inc., priority 2008, dated 2014)
Residues, ends and D or L forms follow the SMILES beside them.

Assay: in vivo
Settings: mouse, po, 2 g/kg body weight

## CC(C)C[C@H](NC(=O)[C@H](CCC(=O)O)NC(=O)[C@H](CO)NC(=O)[C@@H](N)CC(C)C)C(=O)O [LSEL, Leu-Ser-Glu-Leu] (H-LSEL-OH)
  LD50: > 2000 mg/kg
